From patent US8129547B2, “Anticoagulation of human blood ex vivo” (priority 2006, dated 2012)

Legend:
Plasma-kallikrein = molecular target: T1, Plasma-kallikrein (Homo sapiens, UniProt P03952); assay: Determination of Ki values, chromogenic substrate, Dixon evaluation: plasma-kallikrein; assay type: biochemical; details: 25° C., tris buffer pH 8.0, substrate Bz-Pro-Phe-Arg-pNA; read-out: Ki PK (plasma-kallikrein)
T1 construct: purchased Haemochrom Diagnostica GmbH (Essen, D)
Text: In a particularly preferred embodiment the compound according to Formula (I) inhibits not only the blood coagulation factor XA but also thrombin and/or plasma kallikrein. […] Here too the Ki value stands for the dissociation constant of the respective enzyme-inhibitor complex. The determination of the Ki values of the inhibitors vis-a-vis thrombin and plasma kallikrein is preferably carried out in a similar manner to the determination, described above, of the Ki values of the inhibitors vis-a-vis the coagulation factor Xa, but in this case CH3SO2-D-HHT-gly-arg-pNA (with HHT=hexahydrothyrosin, and pNA=para-nitroaniline; sold under the commercial name Pefachrome tPA) are used as substrates in the case of thrombin and bz-pro-phe-arg-pNA (with bz=[…], and pNA=para-nitroaniline; sold under the commercial name Chromozym PK) in the case of plasma-kallikrein.
(§1) The inhibitors used here are the commercially available exemplary inhibitors Pefabloc tPA/Xa (2,7-bis(4-amidinobenzylidene)-cyclopeptanone-(1), Pentapharm Ltd. Basel, Switzerland), CJ-FXa (benzylsulphonyl-D-arginyl-glycyl-4-amidinobenzylamide, Haemochrom GmbH, Essen, Germany) and CJ-PK (benzylsulphonyl-D-seryl-carbobenzoxylsyl-4-amidinobenzylamide, Haemochrom GmbH, Essen, Germany). Research samples were available of DX-9065a ((+)-(2S)-2-[4-[[3S)-1-acetimidoyl-3-pyrrodinyl]oxy]phenyl]-3-[7-amidino-2-naphthyl]propanic acid, Daiichi Pharmaceutical Company Ltd., Tokyo, Japan), and Otamixaban (2-(R)-(3-carbamimidoylbenyzyl)-3-(R)-[4-(1-oxypyridin-4-yl)benzoylamino]-butyric acid-methylester, Sanofi-Aventis GmbH, Frankfurt, Germany), both of which are undergoing clinical tests. In order to examine the inhibitory action of these exemplarily used inhibitors on the blood coagulation factors plasma-kallikrein, VIIa, Xa, XIa and XIIa, the Ki values of the respective enzyme-inhibitor complexes were determined.
(§2) The enzymes were produced by Haemochrom Diagnostica GmbH (Essen, D) and were dissolved in 0.154 mol/l NaCl. The substrates (Pentapharm AG, Basel, CH) were dissolved in H2O and the inhibitor was dissolved in the above-mentioned tris buffer. The following substrates were used for the individual enzymes:
(§3) 200 μl of inhibitor solution were mixed with 25 μl of substrate for the determination and the reaction was started by the addition of 50 μl of enzyme. After a reaction time of 3-5 mins. 25 μl of acetic acid (50%) were added and the extinction was measured at 405 nm with a microplate reader (iEMS Reader MF 12401, Labsystems, Helsinki, Finland). The evaluation was carried out graphically according to Dixon (Biochem. J., 55, 170, 1953).
(§4) The enzymes were produced by Haemochrom Diagnostica GmbH (Essen, D), and only thrombin was manufactured in our own laboratory according to Walsmann (Pharmazie 23, 401-402, 1968). All the enzymes were dissolved in 0.154 mol/l NaCl. The substrates (Pentapharm AG, Basel, CH) were dissolved in H2O and the inhibitor was dissolved in the above-mentioned tris buffer. The following substrates were used for the individual enzymes:
as §3, with “1401,” for “12401,”

human vein blood = assay: Storage of human vein blood after anticoagulation with inhibitor (F1+2 immunoassay); details: 25° C.
Method: In the sense of the invention anticoagulation means that the re-formation of thrombin is inhibited in the sampled blood. According to the invention thrombin re-formation is inhibited when no more than 1 nM of thrombin is re-formed in the sampled blood. As described above, the activation of prothrombin to thrombin represents an essential step in the blood coagulation cascade. In this case the prothrombin fragment 1+2 (F1+2) is released in equivalent quantities. It is therefore possible to quantify the thrombin actually formed by determining the fragment produced, thus enabling the prothrombin fragment F1+2 to be used as an indirect marker of an activation of prothrombin to thrombin. The concentration of the prothrombin fragment F1+2 formed may be determined immunologically, for example, with commercial enzyme immunoassays (for example Enzygnost F1+2 micro, Dade Behring GmbH, Marburg).
According to the invention anticoagulation therefore means that no more than 1 nM of prothrombin fragment F1+2 is newly formed in the blood after its sampling. […] Without suitable treatment of the blood to prevent coagulation there is an increase in the concentration of the prothrombin fragment F1+2 in this example to well over 1.3 nM, within a few minutes, due to the plasmatic coagulation, i.e. the blood coagulates.
In this experiment it was determined how long human vein blood can be stored without the formation of thrombin or activation of thrombocytes.
For this purpose blood (9 parts) sampled from a patient was mixed with inhibitor solution (0.05 mM, 0.5 mM or 5 mM in physiological NaCl solution; 1 part). Some of the blood was stored at 25° C., the remainder in the refrigerator at 4° C. The quantity of thrombin formed was determined immunologically during storage based on the formation of the prothrombin fragment F1+2 (Enzygnost F1+2 micro, Dade Behring GmbH, Marburg). […] In this case it is irrelevant whether the blood samples were kept at room temperature (approx. 25° C.) or at 4° C.
For this purpose blood (9 parts) sampled from a patient was mixed with inhibitor solution (0.05 mM, 0.5 mM or 5 mM in physiological NaCl solution; 1 part) and stored at room temperature (about 22±2° C.). The quantity of thrombin formed was determined immunologically during storage based on the formation of the prothrombin fragment F1+2 (Enzygnost F1+2 micro, Dade Behring GmbH, Marburg). It was shown that BAPA′ is capable of keeping anticoagulated blood uncoagulated at a concentration in the blood of 500 μM or 50 μM for more than 48 hours (Table 4). At a concentration of 5 μM BAPA′ prevents coagulation for more than 8 hours.

Factor XIa = molecular target: T2, Factor XIa (Homo sapiens, UniProt P03951); assay: Determination of Ki values, chromogenic substrate, Dixon evaluation: Factor XIa; assay type: biochemical; details: 25° C., tris buffer pH 8.0, substrate H-D-Lys(Cbo)-Pro-Arg-pNA
T2 construct: purchased Haemochrom Diagnostica GmbH (Essen, D)
Text: as §1, §2, §3, §4
as §3, with “1401,” for “12401,”

Factor Xa = molecular target: T3, Factor Xa (Homo sapiens, UniProt P00742); assay: Determination of Ki values, chromogenic substrate, Dixon evaluation: Factor Xa; assay type: biochemical; details: 25° C., tris buffer pH 8.0, substrate CH3OCO-D-Cha-Gly-Arg-pNA
T3 construct: purchased Haemochrom Diagnostica GmbH (Essen, D)
T3 sequence (P00742 235-488 limits assumed): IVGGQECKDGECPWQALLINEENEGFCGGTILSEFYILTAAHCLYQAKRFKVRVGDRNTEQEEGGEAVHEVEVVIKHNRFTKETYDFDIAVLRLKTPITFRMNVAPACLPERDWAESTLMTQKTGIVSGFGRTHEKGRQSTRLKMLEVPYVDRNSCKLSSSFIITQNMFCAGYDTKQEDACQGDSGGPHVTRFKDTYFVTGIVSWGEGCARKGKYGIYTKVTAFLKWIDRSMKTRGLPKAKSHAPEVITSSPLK
T3 sequence (P00742 41-179 partner limits assumed): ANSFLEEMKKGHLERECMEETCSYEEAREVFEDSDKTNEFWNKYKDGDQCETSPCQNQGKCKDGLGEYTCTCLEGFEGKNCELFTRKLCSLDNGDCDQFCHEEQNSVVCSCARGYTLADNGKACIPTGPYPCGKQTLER

T2 sequence (P03951 388-625 limits assumed): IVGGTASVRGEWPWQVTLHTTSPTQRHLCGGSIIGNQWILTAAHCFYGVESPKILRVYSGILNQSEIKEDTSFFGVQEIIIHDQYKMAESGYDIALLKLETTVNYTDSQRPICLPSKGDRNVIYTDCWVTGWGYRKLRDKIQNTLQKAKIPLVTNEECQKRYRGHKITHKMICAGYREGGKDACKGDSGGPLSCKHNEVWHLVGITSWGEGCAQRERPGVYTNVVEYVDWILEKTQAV
T2 sequence (P03951 19-387 partner limits assumed): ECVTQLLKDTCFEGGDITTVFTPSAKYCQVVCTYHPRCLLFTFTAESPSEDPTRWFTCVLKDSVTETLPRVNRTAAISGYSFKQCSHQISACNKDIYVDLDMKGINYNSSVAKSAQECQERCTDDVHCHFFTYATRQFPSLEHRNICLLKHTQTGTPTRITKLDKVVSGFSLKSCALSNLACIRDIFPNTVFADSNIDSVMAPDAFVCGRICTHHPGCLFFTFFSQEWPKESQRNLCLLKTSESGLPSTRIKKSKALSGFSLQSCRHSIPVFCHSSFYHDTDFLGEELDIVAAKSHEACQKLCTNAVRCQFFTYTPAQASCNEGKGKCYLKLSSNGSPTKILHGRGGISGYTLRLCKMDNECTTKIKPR
T1 sequence (P03952 391-638 limits assumed): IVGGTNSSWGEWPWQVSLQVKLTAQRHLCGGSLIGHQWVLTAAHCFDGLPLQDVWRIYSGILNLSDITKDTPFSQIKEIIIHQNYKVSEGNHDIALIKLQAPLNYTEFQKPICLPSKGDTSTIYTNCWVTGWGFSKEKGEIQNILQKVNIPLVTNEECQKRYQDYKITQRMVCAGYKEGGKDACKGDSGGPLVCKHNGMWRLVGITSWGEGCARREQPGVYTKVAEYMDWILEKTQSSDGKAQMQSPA
T1 sequence (P03952 20-390 partner limits assumed): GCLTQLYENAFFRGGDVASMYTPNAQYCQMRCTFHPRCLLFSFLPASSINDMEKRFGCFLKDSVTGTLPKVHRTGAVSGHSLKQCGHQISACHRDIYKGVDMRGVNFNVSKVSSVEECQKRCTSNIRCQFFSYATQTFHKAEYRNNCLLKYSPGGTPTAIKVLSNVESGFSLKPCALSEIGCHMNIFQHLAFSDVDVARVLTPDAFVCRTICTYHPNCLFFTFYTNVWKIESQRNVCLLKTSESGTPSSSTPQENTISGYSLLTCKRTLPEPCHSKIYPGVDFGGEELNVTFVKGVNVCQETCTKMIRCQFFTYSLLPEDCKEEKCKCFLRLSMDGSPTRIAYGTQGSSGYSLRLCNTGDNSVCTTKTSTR

`COC(=O)[C@H](Cc1cccc(C(=N)N)c1)[C@@H](C)NC(=O)c1ccc(-c2cc[n+]([O-])cc2)cc1` (mixture of isomers) [Otamixaban, 2-(R)-(3-carbamimidoylbenyzyl)-3-(R)-[4-(1-oxypyridin-4-yl)benzoylamino]-butyric acid-methylester] gave a Ki (Plasma-kallikrein) of 26 nM, an Anticoagulation time (human vein blood; concentration in the blood 5 μM) of 12 to 24 h and a Ki (Factor XIa) of 23000 nM.

For `N=C(N)c1ccc(C=C2CCCCC(=Cc3ccc(C(=N)N)cc3)C2=O)cc1` [Pefabloc tPA/Xa, 2,7-bis(4-amidinobenzylidene)-cycloheptanone-(1)], the Ki (Plasma-kallikrein) was 720 nM, the Anticoagulation time (human vein blood; concentration in the blood 500 μM) was 7 to 10 h and the Ki (Factor Xa) was 5.1 nM. For the same compound, the Ki (Factor XIa) was 42000 nM.
